molecular target: T1, H^+ --K^+ ATPase (Sus scrofa, UniProt P19156); assay: H+-K+ ATPase activity inhibition; assay type: biochemical; details: pig gastric fundus gland H+-K+ ATPase; pH 7.40, 37° C., 30 min incubation; compound dissolved in methanol; read-out: inhibitory effect on H+-K+ ATPase activity, IC50
T1 construct: prepared from a gland portion of the gastric fundus of the gastiric mucosa of a fresh pig; from tissue; host or cells: gland portion of the gastric fundus mucosa, fresh pig
Procedure: H^+ --K^+ ATPase activity inhibition
(1) Preparation of H^+ --K^+ ATPase:
H^+ --K^+ ATPase was prepared from a gland portion of the gastric fundus of the gastiric mucosa of a fresh pig by the modification of a method of Saccomani et al., Biochem. and Biophys.
(2) Determination of H^+ --K^+ ATPase activity:
The compound of the present invention was incubated in various concentrations together with H^+ --K^+ ATPase and 10 μg/ml of protein in 40 mM of Tris-HCl having a pH value of 7.40 at 37° C. for 30 min. 15 mM of KCl was added thereto. 10 min after the addition, an ATPase reaction was initiated by addition of 3 mM of MgCl2 and ATP. 10 min after the initiation of the reaction, the amount of the released inorganic phosphoric acid was measured according to the method of Yoda and Hokin, Biochem. Biophys.
The test compound was dissolved in methanol prior to use.
The inhibitory effect was determined as follows. The measured value of the test compound was subtracted from the measured value of the control group to determine the difference in the measured values therebetween. The inhibitory effect was calculated as the percentage of the difference relative to the measured value of the control group. In the Table, the inhibitory effect was expressed in terms of IC50.

T1 sequence (P19156 2-1034 limits assumed): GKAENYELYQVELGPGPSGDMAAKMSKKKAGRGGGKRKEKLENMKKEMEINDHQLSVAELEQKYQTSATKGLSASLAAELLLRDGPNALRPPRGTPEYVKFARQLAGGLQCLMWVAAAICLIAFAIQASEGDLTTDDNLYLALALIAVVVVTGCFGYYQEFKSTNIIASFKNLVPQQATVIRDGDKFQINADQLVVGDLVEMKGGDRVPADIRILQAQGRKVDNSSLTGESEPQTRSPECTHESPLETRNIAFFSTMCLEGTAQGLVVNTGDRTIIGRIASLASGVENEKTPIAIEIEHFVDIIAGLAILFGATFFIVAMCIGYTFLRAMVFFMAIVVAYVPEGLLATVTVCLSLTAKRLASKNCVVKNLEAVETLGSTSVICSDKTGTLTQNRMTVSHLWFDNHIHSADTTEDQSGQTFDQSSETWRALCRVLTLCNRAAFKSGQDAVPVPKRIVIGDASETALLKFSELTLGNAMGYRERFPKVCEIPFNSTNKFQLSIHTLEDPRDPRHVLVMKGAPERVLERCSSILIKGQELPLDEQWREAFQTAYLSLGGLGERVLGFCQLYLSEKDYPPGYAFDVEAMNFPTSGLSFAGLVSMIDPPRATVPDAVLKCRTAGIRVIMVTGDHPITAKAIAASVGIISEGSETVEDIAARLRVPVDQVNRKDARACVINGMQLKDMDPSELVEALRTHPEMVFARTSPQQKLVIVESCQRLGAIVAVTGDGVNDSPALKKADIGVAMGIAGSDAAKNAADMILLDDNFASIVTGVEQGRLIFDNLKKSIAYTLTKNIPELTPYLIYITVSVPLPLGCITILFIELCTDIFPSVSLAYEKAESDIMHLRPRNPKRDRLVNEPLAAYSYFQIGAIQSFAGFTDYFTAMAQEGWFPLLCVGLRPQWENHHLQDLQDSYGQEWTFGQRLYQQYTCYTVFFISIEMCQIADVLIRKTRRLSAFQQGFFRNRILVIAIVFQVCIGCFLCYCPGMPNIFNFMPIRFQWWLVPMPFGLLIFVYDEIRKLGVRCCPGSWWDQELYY
T1 sequence (P18434 whole entry partner): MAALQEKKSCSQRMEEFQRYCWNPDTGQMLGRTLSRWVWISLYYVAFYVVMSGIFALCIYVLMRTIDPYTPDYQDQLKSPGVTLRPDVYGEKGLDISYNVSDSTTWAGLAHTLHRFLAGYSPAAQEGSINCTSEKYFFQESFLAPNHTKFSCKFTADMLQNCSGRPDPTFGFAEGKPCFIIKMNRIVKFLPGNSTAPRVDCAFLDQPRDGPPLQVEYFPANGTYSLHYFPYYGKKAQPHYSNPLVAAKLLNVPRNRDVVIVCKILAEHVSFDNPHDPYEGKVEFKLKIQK

| SMILES | IC50 [nM] |
| --- | --- |
| COCCOc1ccnc(C[S+]([O-])c2nc3cc(C(F)(F)F)ccc3[nH]2)c1C (centres unmarked) [No. 11] | 1700 |
| CCOCCOc1ccnc(C[S+]([O-])c2nc3cc(OC)ccc3[nH]2)c1C (centres unmarked) [No. 9] | 3400 |
| CCCCOCCOc1ccnc(C[S+]([O-])c2nc3cc(Cl)ccc3[nH]2)c1C (centres unmarked) [No. 2] | 1800 |
| CCCCOCCOc1ccnc(C[S+]([O-])c2nc3ccccc3[nH]2)c1C (centres unmarked) | 1800 |
| CCCCOCCOc1ccnc(C[S+]([O-])c2nc3cc(C)c(C)cc3[nH]2)c1C (centres unmarked) [No. 4] | 2200 |
| COCCOc1ccnc(C[S+]([O-])c2nc3cc(OC)ccc3[nH]2)c1C (centres unmarked) [No. 12] | 5600 |
| CCCCOCCOc1ccnc(C[S+]([O-])c2nc3cc(C(F)(F)F)ccc3[nH]2)c1C (centres unmarked) [No. 3] | 1100 |
| COCCOc1ccnc(C[S+]([O-])c2nc3ccccc3[nH]2)c1C (centres unmarked) [No. 10] | 3300 |
| CCOCCOc1ccnc(C[S+]([O-])c2nc3ccccc3[nH]2)c1C (centres unmarked) [No. 6] | 2800 |
| CCCCOCCOc1ccnc(C[S+]([O-])c2nc3cc(OC)ccc3[nH]2)c1C (centres unmarked) [No. 5] | 3000 |

system: not given; assay: not given; details: reported, prior art; cited from earlier work

| SMILES | side effects |
| --- | --- |
| CN/C(=N/CCSCc1nc[nH]c1C)NC#N [cimetidine] | antiandrogenic action or a metabolic enzymatic activity inhibitory action upon liver |

Reference: patent US5708013A, “Pyridine derivative and therapeutic agent for ulcer comprising the same” (priority 1987, dated 1998)
